Laboratory results taken from PubChem BioAssay (NCI).
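1) Cells in 96-well plates. 2) Compound, 48 h, 5 concentrations. 3) Linear interpolation between surrounding doses. 4) Unreached endpoint = highest concentration. GI50 = concentration required for 50% inhibition of growth. TGI: total growth inhibition.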

Legend:
Test in all cases: DTP human tumour cell line panel, 48 h
[1] = system: SK-MEL-28 melanoma
[2] = system: DU-145 prostate
[3] = system: MDA-MB-468 breast
[4] = system: HL-60(TB) leukemia
[5] = system: CAKI-1 renal
[6] = system: SNB-75 CNS
[7] = system: OVCAR-4 ovarian
[8] = system: MDA-MB-231 breast
[9] = system: TK-10 renal
[10] = system: OVCAR-3 ovarian
[11] = system: NCI-H226 lung
[12] = system: COLO 205 colon
[13] = system: OVCAR-8 ovarian
[14] = system: UACC-257 melanoma
[15] = system: M14 melanoma
[16] = system: HOP-62 NSCLC
[17] = system: NCI/ADR-RES ovarian
[18] = system: SNB-19 CNS
[19] = system: SW-620 colon
[20] = system: MALME-3M melanoma
[21] = system: SR leukemia
[22] = system: RXF 393 renal
[23] = system: A549 NSCLC
[24] = system: HCT-116 colon
[25] = system: IGROV1 ovarian
[26] = system: KM12 colon
[27] = system: PC-3 prostate
[28] = system: T-47D breast
[29] = system: SF-268 CNS
[30] = system: HCT-15 colon

COc1cc2c(c(OC)c1OC)C(=O)CC(c1cccc(NC(=O)c3cc([N+](=O)[O-])ccc3Cl)c1)O2 (centres undefined)
GI50 [1]: 15.5 µM
TGI [1]: > 100 µM
GI50 [2]: 5.48 µM
TGI [2]: > 100 µM
GI50 [3]: 2300 nM
TGI [3]: 5.92 µM
GI50 [4]: 4.91 µM
TGI [4]: 57.7 µM
GI50 [5]: 3.22 µM
TGI [5]: > 100 µM
GI50 [6]: 2530 nM
TGI [6]: 26.3 µM
GI50 [7]: 26.6 µM
TGI [7]: > 100 µM
GI50 [8]: 3.96 µM
TGI [8]: 19.1 µM
GI50 [9]: 33.6 µM
TGI [9]: > 100 µM
GI50 [10]: 5.12 µM
TGI [10]: > 100 µM
GI50 [11]: 3.37 µM
TGI [11]: 17.5 µM
GI50 [12]: 5.49 µM
TGI [12]: 21 µM
GI50 [13]: 3.47 µM
TGI [13]: 20.5 µM
GI50 [14]: 6.27 µM
TGI [14]: > 100 µM
GI50 [15]: 3.17 µM
TGI [15]: 15.9 µM
GI50 [16]: 60.9 µM
TGI [16]: > 100 µM
GI50 [17]: 4.99 µM
TGI [17]: 29.5 µM
GI50 [18]: 18.6 µM
TGI [18]: > 100 µM
GI50 [19]: 2140 nM
TGI [19]: 5.61 µM
GI50 [20]: 18.2 µM
TGI [20]: > 100 µM
GI50 [21]: 2390 nM
TGI [21]: > 100 µM
GI50 [22]: 4.02 µM
TGI [22]: 34.4 µM
GI50 [23]: 6.66 µM
TGI [23]: > 100 µM
GI50 [24]: 1690 nM
TGI [24]: 3.64 µM
GI50 [25]: 11.3 µM
TGI [25]: > 100 µM
GI50 [26]: 3.86 µM
TGI [26]: 33.8 µM
GI50 [27]: 7.27 µM
TGI [27]: > 100 µM
GI50 [28]: 3.74 µM
TGI [28]: 58.7 µM
GI50 [29]: 6.92 µM
TGI [29]: > 100 µM
GI50 [30]: 2040 nM
